# PMC3690454, “14-3-3 Proteins Interact with a Hybrid Prenyl-Phosphorylation Motif to Inhibit G Proteins” (Cell, 2013)
# Square brackets hold non-standard residues; d marks the D form. Ends that are not written are not given here. Peptide text beside a SMILES is read from it. pS = N[C@@H](COP(=O)(O)O)C(=O)O
# T1: 14-3-3ζ (Homo sapiens, UniProt P63104)
# T1 construct: hexa-His; made in house; host or cells: E. coli BL21(DE3) Star
# T1 sequence (P63104 1-245): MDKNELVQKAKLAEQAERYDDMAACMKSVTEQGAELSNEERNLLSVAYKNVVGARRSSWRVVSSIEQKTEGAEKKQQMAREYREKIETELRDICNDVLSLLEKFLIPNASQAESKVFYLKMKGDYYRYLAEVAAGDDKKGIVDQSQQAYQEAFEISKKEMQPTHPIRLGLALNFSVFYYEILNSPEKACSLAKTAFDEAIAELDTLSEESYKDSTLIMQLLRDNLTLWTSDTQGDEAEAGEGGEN
# T2: hexa-His-tagged 14-3-3ζ (UniProt P63104 1-245)
# T2 construct: 14-3-3 protein zeta; expressed and purified essentially as in Kostelecky et al., 2009; eluted as a dimer of ~60 kDa; the ITC methods call it 'the 14-3-3ζ domain'; source: E. coli BL21(DE3) Star, purified (HisTrap, size-exclusion chromatography)
# T2 sequence: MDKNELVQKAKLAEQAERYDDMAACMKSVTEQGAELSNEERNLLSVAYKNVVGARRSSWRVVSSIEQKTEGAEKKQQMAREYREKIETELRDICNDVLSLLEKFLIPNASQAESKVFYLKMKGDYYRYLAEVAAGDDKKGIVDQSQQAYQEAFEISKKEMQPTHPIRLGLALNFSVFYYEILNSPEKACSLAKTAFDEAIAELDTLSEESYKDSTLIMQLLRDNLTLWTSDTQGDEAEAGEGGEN
# B1: Rap1A C-terminal peptide, phosphorylated, not geranylgeranylated (biotinylated) (peptide)
# peptide: EKKKPKKK[pS]C
# modifications: not fully specified (N-terminus); also: biotinylated
# notes: Rap1A C-terminal peptide as Dm2 but without the geranylgeranyl modification; also called Rap1A+P-GG; nonmodified phosphopeptide; source: synthetic peptide
# How the values were obtained:
# 14-3-3ζ [1] = target: T1, 14-3-3ζ; test: Isothermal titration calorimetry of Rnd3 C-terminal peptides with 14-3-3ζ; type: binding; conditions: ITC
# Procedure: ITC measurements were carried out using a VP-ITC200 instrument (GE Healthcare). The 14-3-3ζ domain (see Extended Experimental Procedures) was used at 50–60 μM in ITC buffer (50 mM Tris [pH 7.5]), 100 mM NaCl, 1 mM TCEP). Rnd3 C-terminal peptides were solubilized in ITC buffer and used at 500–600 μM. Titrations were carried out at 25°C in triplicate. Each titration was fitted to a simple one-site binding model using the Origin software provided with the instrument. Titrations with nonbinding peptides were carried out at 15°C and 25°C.
# GST-14-3-3β protein was expressed as previously reported ([Yaffe et al., 1997]). A hexa-His-tagged version of 14-3-3ζ was expressed and purified essentially as previously reported ([Kostelecky et al., 2009]). In brief, the E. coli strain BL21(DE3) Star (Invitrogen) was transformed with the expression plasmid that was maintained by 34 μg/ml chloramphenicol. E. coli cells were grown to OD600nm of 0.7-0.8 in TB medium at 37°C and protein expression induced by 1 mM IPTG for 5 hr at 30°C. Pelleted cells were suspended in buffer A (25 mM Tris [pH 7.5], 100 mM NaCl, 1 mM EDTA, and 1 mM DTT) and disrupted by sonication. Insoluble material was cleared by high-speed centrifugation and the cleared lysate applied to a 5 ml HisTrap column using an AKTA system (GE Healthcare). The 14-3-3ζ protein was eluted with a linear gradient (0–500 mM) of Imidazole in buffer A. Finally, the protein was subjected to size-exclusion chromatography using a High-Load S200 pg column. As previously described, 14-3-3ζ eluted as a dimer with a molecular weight of ∼60 kDa. The final yield of 14-3-3ζ was 30–40 mg per liter of TB medium.
# [2] = system: GST-14-3-3β / Rnd3 interaction; test: Peptide competition in GST-14-3-3β pull-down of FLAG-Rnd3 from COS7 lysates; type: binding; conditions: peptide 10 μg/ml preincubated 15 min at 4°C with GST-14-3-3β; immunoblot
# Procedure: Recombinant GST-14-3-3β was expressed and purified from E. coli (Extended Experimental Procedures). FLAG-Rnd3-transfected COS7 cells were lysed in LB buffer. After removal of insoluble material, precleared cell lysates were incubated at 4°C for 2 hr with the recombinant GST or GST-14-3-3β protein (5 μg) on glutathione beads (Amersham Biosciences). Beads were washed with LB buffer before eluting the proteins in LSB. The proteins were resolved by SDS-PAGE and analyzed by immunoblotting.
# For peptide competition experiments (Table S3; Extended Experimental Procedures), peptides (10 μg/ml) were preincubated for 15 min at 4°C with the GST-14-3-3β prior to the addition of precleared cell lysates.
# 14-3-3ζ [3] = target: T1, 14-3-3ζ; test: Biolayer interferometry (Octet RED96), immobilised biotinylated peptides, 14-3-3ζ in solution; type: binding; conditions: determined by steady-state analysis, typical experiment (n ≥ 3)
# Procedure: Biolayer interferometry was carried out using an Octet RED96 instrument (ForteBio). Biotinylated peptides were immobilized on streptavadin-coated biosensors (ForteBio) at a concentration of 1 μg/ml in BI buffer (25 mM Tris, 150 mM NaCl, 0.1% Tween-20), for 300 s. The immobilization typically reached a response level of 2 nm. Association and dissociation curves were obtained through addition of a dilution series of 14-3-3ζ ([…]) for 300 s followed by dissociation in BI buffer for 300 s using the Octet acquisition software. The binding data were fitted using the Octet analysis software.
# pS210-Rnd3 = pS210-Rnd3 immunoblot in treated COS7 cells; type: cell-based; conditions: 2 hr, PMA 100 nM, BIM1 1 μM
# Procedure: (§1) COS7 cells grown in Dulbecco’s modified Eagle’s medium (DMEM) containing 10% bovine fetal calf serum and penicillin/streptomycin (Invitrogen) were electroporated with 5 μg DNA at 250 V and 960 μF using 0.4 cm Gene Pulser Cuvettes (Bio-Rad) in 250 μl of electroporation buffer (120 mM KCl, 10 mM K2PO4/KH2PO4 [pH 7.6], 25 mM HEPES [pH 7.6], 2 mM MgCl2, and 0.5% Ficoll). Cells were analyzed 24 hr after transfection. NIH 3T3 cells grown in DMEM containing 10% donor bovine serum and penicillin/streptomycin were transfected using FuGENE 6 (Roche) according to the manufacturer’s instructions. Where indicated, cells were treated for 20 min with 100 nM calyculin A (Alexis); for 2 hr with 100 nM staurosporine (Calbiochem), 20 μM H-1152 (Calbiochem), 1 μM bisindolylmaleimide I (BIM1, Calbiochem), or 100 nM phorbol-12-myristate-13-acetate (PMA, Cell Signaling Technology); and for 16 hr with 10 μM L-744,832 farnesyltransferase inhibitor (FTI, Calbiochem).
# Rabbit polyclonal antisera were raised against phosphorylated Rnd3-S210 peptide (KNVKRNKpSQRA) by Eurogentec, Seraing, Belgium. Nonspecific antibodies were removed through a nonphosphopeptide (KNVKRNKSQRA) column followed by a specific phosphoenrichment of the antibodies by affinity purification using a phosphopeptide column. […]
# Rnd3/14-3-3 interaction = test: Co-immunoprecipitation of Rnd3 with 14-3-3 proteins from treated COS7 cells; type: cell-based; conditions: staurosporine 100 nM 2 hr, calyculin A 100 nM 20 min, FTI (L-744,832) 10 μM 16 hr, immunoblot
# Procedure: as §1
# Transfected COS7 cells were lysed in lysis buffer LB (1% Triton X-100, 20 mM Tris–HCl [pH 8], 130 mM NaCl, 1 mM dithiothreitol [DTT], 10 mM sodium fluoride, complete EDTA-free protease inhibitor cocktail [Roche], phosphatase inhibitor cocktails [set II+IV, Calbiochem]). After centrifugation (13,000 g, 4°C, 10 min), soluble proteins were precleared then incubated with either mouse nonimmune IgG as a control, mouse anti-HA (HA-7) or mouse anti-FLAG (M2) antibody on agarose beads (Sigma-Aldrich) for 2 hr at 4°C. Beads were washed five times with lysis buffer (containing 260 mM NaCl), then bound proteins were eluted in Laemmli sample buffer (LSB), resolved by SDS–PAGE and analyzed by immunoblotting.
# [4] = target: biotinylated Rnd3 C-terminal peptide, phosphorylated on S240 (+P−F) (human); test: BLI; Octet RED96; biotinylated peptides immobilised on streptavidin biosensors; dilution series of 14-3-3ζ; 25 mM Tris, 150 mM NaCl, 0.1% Tween-20; KD of +P-F by steady-state analysis
# [5] = target: biotinylated Rnd3 C-terminal peptide, phosphorylated on S240 and geranylated (+P+G) (human); test: as above
# [6] = target: biotinylated Rnd3 C-terminal peptide, phosphorylated on S240 and isoprenylated (+P+Ipr) (human); test: as above
# [7] = target: biotinylated Rnd3 C-terminal peptide, phosphorylated on S240 and geranylgeranylated (+P+GG) (human); test: as above
# [8] = target: biotinylated Rnd3 C-terminal peptide, phosphorylated on S240 and farnesylated on C241 (+P+F) (human); test: as above
# hexa-His-tagged 14-3-3ζ = target: T2, hexa-His-tagged 14-3-3ζ; test: BLI; Octet RED96; biotinylated peptides immobilised on streptavidin-coated biosensors (1 μg/ml, 300 s); dilution series of 14-3-3ζ for 300 s, dissociation 300 s; BI buffer 25 mM Tris, 150 mM NaCl, 0.1% Tween-20; data of a typical experiment (n ≥ 3); conditions: both partners purified
molecule,measurement,setting,value
CC(C)C[C@H](NC(=O)[C@@H](N)CC(=O)O)C(=O)N[C@@H](CCCNC(=N)N)C(=O)N[C@@H](CCCCN)C(=O)N[C@@H](CC(=O)O)C(=O)N[C@@H](CCCCN)C(=O)N[C@@H](C)C(=O)N[C@@H](CCCCN)C(=O)N[C@@H](COP(=O)(O)O)C(=O)N[C@@H](CS)C(=O)O [+P-F] (H-DLRKDKAK[pS]C-OH),Kd,"14-3-3ζ [1]; 25°C, 50 mM Tris pH 7.5, 100 mM NaCl, 1 mM TCEP, one-site model, mean ± SD, n = 3",1060 ± 40 nM
same,Stoichiometry (N),"14-3-3ζ [1]; 25°C, 14-3-3ζ 50–60 μM, peptide 500–600 μM, 50 mM Tris pH 7.5, 100 mM NaCl, 1 mM TCEP, one-site model, mean ± SD, n = 3",0.89 ± 0.017
same,TΔS,"14-3-3ζ [1]; 25°C, mean ± SD, n = 3",2.469 ± 0.231 kcal/mol
same,ΔG,"14-3-3ζ [1]; 25°C, mean ± SD, n = 3",-8.152 ± 0.027 kcal/mol
same,ΔH,"14-3-3ζ [1]; 25°C, mean ± SD, n = 3",-5.683 ± 0.204 kcal/mol
same,N (printed in Figure 5C),14-3-3ζ [1]; fitted curve of Figure 5C,0.89
same,inhibition of the interaction between GST-14-3-3β and Rnd3,[2],only slightly inhibited
same,Kd,14-3-3ζ [3],1300 nM
"CN(C)CCCn1cc(C2=C(c3c[nH]c4ccccc34)C(=O)NC2=O)c2ccccc21 [BIM1, bisindolylmaleimide I]",effect on pS210-Rnd3,pS210-Rnd3,reduced
"CC[C@H](C)[C@@H](CO[C@@H](Cc1ccccc1)C(=O)N[C@@H](CCS(C)(=O)=O)C(=O)OC(C)C)NC[C@@H](N)CS [FTI, L-744,832]",effect on Rnd3/14-3-3 interaction,Rnd3/14-3-3 interaction,prevented
"CCCCCCCCCCCCCC(=O)O[C@@H]1[C@@H](C)[C@@]2(O)[C@@H](C=C(CO)C[C@]3(O)C(=O)C(C)=C[C@@H]23)[C@@H]2C(C)(C)[C@]12OC(C)=O [PMA, phorbol-12-myristate-13-acetate]",effect on pS210-Rnd3,pS210-Rnd3,increase
COC[C@@H]([C@H](O)[C@H](O)C(=O)NCC[C@H](C)c1nc(/C=C/C[C@@H]2O[C@]3(C[C@@H](O)[C@@H]2C)O[C@H]([C@H](C[C@H](O)[C@H](C)[C@H](O)[C@H](C)/C=C(C)/C(C)=C/C=C/C(C)=C\C#N)OC)[C@H](OP(=O)(O)O)C3(C)C)co1)N(C)C [calyculin A],effect on Rnd3/14-3-3 interaction,Rnd3/14-3-3 interaction,increased
CN[C@@H]1C[C@H]2O[C@@](C)([C@@H]1OC)n1c3ccccc3c3c4c(c5c6ccccc6n2c5c31)C(=O)NC4 [staurosporine],effect on Rnd3/14-3-3 interaction,Rnd3/14-3-3 interaction,reduced
"N-CDRSKpSAPTS-C [PKC, reference compound]",inhibition of the interaction between GST-14-3-3β and Rnd3,[2],inhibited
hexa-His-tagged 14-3-3ζ (from UniProt P63104 1-245) (natural protein),Kd,[4],1300 nM
same,Kd,[5],56.5 nM
same,koff,[5],0.032 s⁻¹
same,kon,[5],570000 M⁻¹ s⁻¹
same,Kd,[6],556 nM
same,koff,[6],0.13 s⁻¹
same,kon,[6],240000 M⁻¹ s⁻¹
same,Kd,[7],23.2 nM
same,koff,[7],0.021 s⁻¹
same,kon,[7],890000 M⁻¹ s⁻¹
same,Kd,[8],32.4 nM
same,koff,[8],0.028 s⁻¹
same,kon,[8],860000 M⁻¹ s⁻¹
B1,Kd,hexa-His-tagged 14-3-3ζ,> 1000 nM
